# Experimental data reported in US20200291444A1, “Macrocyclisation Tags” (Oxford University Innovation LTD, priority 2017, published 2020).
# Several values for one entry are separate records, joined by “and”; a condition that tells them apart may be missing. Equal entries are not always repeated. Entries after “also recorded” stand apart in the source; their conditions may differ. Where two headings read alike, the source gives them in different places. No end group written: not given here.
# Assays:
# GmPOPB = target: T1, GmPOPB (Galerina marginata, UniProt H2E7Q8); assay: GmPOPB kinetic assays (LC-MS); type: biochemical; details: room temperature
# T1 construct: His-tag (TEV-cleavable) (cleaved yes); host or cells: E. coli BL21(DE3)
# Method: Comparison between distinct GmPOPB substrates was performed in 50 mM Tris pH 8.0, 50 mM NaCl, 10 mM DTT with varying concentrations of substrates at room temperature. All reactions were performed in duplicates. Reactions were started by adding GmPOPB (50 nM for GmAMA1_C6S, 1 μM for the 13mer and 14mer, and 20 nM for other substrates) to the assay mixture containing buffer and peptide. Reactions were quenched at several time points by adding 50 μL reaction mixture to 20 μL 6% TFA. Reactants were separated from products for quantification by injecting 50 μL of each quenched time point mix onto a ZORBAX SB-C18, 5 μm, 9.4×50 mm (Agilent) column connected to an Agilent LC-MS (G6130B Single Quad, Agilent Technologies). Reactants were separated from products using a gradient from H2O containing 0.1% TFA or 0.1% formic acid and 5% acetonitrile to 50% acetonitrile, at 1.5 ml/min for 8 min. Peaks with ultra violet (UV) absorbance at 220 and 280 nm were integrated, the area of peaks corresponding to reactant and products was used to calculate the percentage of product formed after a correction for differences in the extinction coefficient of each peptide was applied (ε280-25mer=11,000M-1 cm-1, ε220-25mer=46,000M-1 cm-1, ε280-cyclic=5500M-1 cm-1, ε220-cyclic=34,000M-1 cm-1, and ε280-tail=5500M-1 cm-1). The sum of product+substrate was assumed equal to the total initial amount of substrate, product converted from % to concentration. This value was divided by concentration of enzyme present to yield v/Et (min-1). When enzyme mutants and peptides containing alanine in the core region were tested for activity, higher concentrations 5 μM enzyme and 100 μM substrate were incubated for 1 and 18 h at room temperature. For progress curves with the 35mer substrate, measurements were triplicate and quantification relied on ion counts from mass spectrometry. […] Authentic macrocyclic peptide was quantified by UV absorbance. Data showing products formed after 1 and 16 h with truncated peptides were performed twice. […] Kinetic data were fitted to a Michaelis-Menten equation using GraphPad Prism, and values reported are average and standard error of the mean.
# GmPOPB_S577A = target: T2, GmPOPB_S577A (Galerina marginata, UniProt H2E7Q8, S577A); assay: ITC binding to inactive mutant GmPOPB_S577A; details: for difference in binding affinity (fold): 13mer versus 35mer, 12 versus 17 amino acid recognition sequence; for binding (in words): concentrations up to 1 mM
# T2 construct: His-tag (TEV-cleavable) (cleaved yes); made in house; host or cells: E. coli BL21(DE3)
# T2 sequence (H2E7Q8 1-730 S577A): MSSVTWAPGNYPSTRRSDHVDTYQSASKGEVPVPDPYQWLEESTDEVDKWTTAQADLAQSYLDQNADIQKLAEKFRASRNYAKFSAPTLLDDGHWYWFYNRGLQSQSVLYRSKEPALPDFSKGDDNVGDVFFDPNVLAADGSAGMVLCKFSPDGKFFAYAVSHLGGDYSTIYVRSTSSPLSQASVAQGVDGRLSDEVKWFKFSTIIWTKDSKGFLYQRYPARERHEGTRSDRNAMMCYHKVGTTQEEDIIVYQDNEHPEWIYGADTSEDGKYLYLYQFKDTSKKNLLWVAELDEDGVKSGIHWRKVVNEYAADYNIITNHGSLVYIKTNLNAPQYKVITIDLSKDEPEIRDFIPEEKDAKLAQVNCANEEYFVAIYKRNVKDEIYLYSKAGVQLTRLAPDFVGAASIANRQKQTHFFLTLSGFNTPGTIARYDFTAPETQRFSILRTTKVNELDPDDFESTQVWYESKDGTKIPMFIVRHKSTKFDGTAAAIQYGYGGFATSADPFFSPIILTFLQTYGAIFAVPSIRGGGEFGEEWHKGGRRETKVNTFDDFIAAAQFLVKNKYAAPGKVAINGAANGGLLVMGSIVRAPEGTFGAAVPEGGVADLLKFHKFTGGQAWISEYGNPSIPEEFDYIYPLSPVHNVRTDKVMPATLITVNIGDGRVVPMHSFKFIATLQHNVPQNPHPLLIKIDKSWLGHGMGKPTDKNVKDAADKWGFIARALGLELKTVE
# Method: GmPOPB peptide ligand solutions were prepared in 20 mM Tris pH 8.0 containing 1 mM DTT, prior to buffer exchange by three cycles of dilution in 50 mM Tris pH 8.0 with 50 mM NaCl, 10 mM DTT followed by concentration using a Microsep Advance centrifugal device equipped with a 1 kDa cut off membrane (Pall Corporation). The same three cycles of dilution in 50 mM Tris pH 8.0 with 50 mM NaCl and 10 mM DTT followed by concentration were performed with the protein to be used in the titration using a Vivaspin protein concentrator spin column with a 30 kDa cut off (GE Healthcare). A final dilution to the concentration to be used for titration was performed using the buffer that passed through during the protein buffer exchange, both for the protein and peptide to be used to avoid any possible buffer mismatch. […] Titrations of peptide into protein solutions were conducted at 20° C. For all the titration experiments, a total of 19 injections of 2 μL were made at 120 s intervals. The heat released due to the first injection (0.4 μL) was excluded from data analyses. […] Equilibrium dissociation constants (Kd) as well as ΔH and ΔS values for binding of each peptide to protein were obtained by fitting the calorimetric data with a single-site model using the stoichiometry parameter n fixed at 1.0 using Malvern PEAQ-ITC data analysis software.
# We performed all ITC binding experiments at least in duplicate, and calculations of average and standard error of the mean were performed with GraphPad Prism.
# PCY1 [1] = assay: PCY1 macrocyclisation of truncated presegetalin F1 substrates with catalytic peptide; type: biochemical, Saponaria vaccaria; details: for effect of catalytic peptide on rate of PreF1coreT macrocyclisation: substrate PreF1coreT (FSASYSSKPIQT), 500 μM catalytic peptide
# Method: Initial rate measurements at different substrate concentrations were performed in order to derive steady state kinetics. All reactions were performed with 0.25 μM PCY1 and 25, 50, 100, 200, 400 or 800 μM substrate ([…] or […]). Reactions containing catalytic peptide RNASAPV or DNASAPV were supplemented with 500 μM of each peptide, respectively. Reactions were performed in 20 mM TRIS pH 8.5, 100 mM NaCl, 5 mM DTT at 30° C. Time points were taken at 5, 15, 30, 45 and 60 min. Samples (50 μL) at each time point were quenched with 20 μL of 6% (v/v) TFA and then spun down for 30 min at 3,080×g. Samples were analysed via LC/MS (ZORBAX SBC18, 5 μm, 9.4 mm×50 mm (Agilent) column connected to an Agilent LC-MS instrument (G6130B Single Quad, Agilent Technologies)) using 0.1% (v/v) formic acid and a gradient of acetonitrile (5%-95%). Extracted ion count peaks for corresponding product (A[[…]]) masses ([M]: 954.44, [M]+H^+: 955.44 and [M]+Na^+: 977.44) were integrated and converted in corresponding product concentration using an ion count v. [product] calibration curve. Product concentration time courses were analysed with linear regression and slopes were plotted as a function of substrate concentrations (Michaelis Menten plot), deriving steady state kinetic parameters shown in FIGS. 7 to 9.
# PCY1 [2] = assay: LC/MS time course of macrocyclisation by PCY1; type: biochemical, Saponaria vaccaria; details: 200 μM substrate, 3.6 μM PCY1
# Method: (§1) All kinetic measurements (activity tests, progress curves and initial-rate experiments) were performed as discontinuous assays analyzing samples via LC/MS or MALDI (10-mer activity test). Reactions were performed in 20 mM Tris pH 8.5, 100 mM NaCl, 5 mM DTT (for progress curves 0.2 mg mL-1 BSA was included).17 Reactions were performed at 30° C. and at various time points 50 μL samples were quenched with 20 μL of 6% (v/v) TFA. Samples (50 μL) were loaded onto a ZORBAX SBC18, 5 μm, 9.4 mm×50 mm (Agilent) column connected to an Agilent LC-MS instrument (G6130B Single Quad, Agilent Technologies). Reactants were separated from products using a gradient from A (H2O with 0.1% formic acid) to 80% B (acetonitrile), at a rate of 1.5 mL/min for 8.75 min. For data analysis, ion count peaks and UV absorbance peaks were integrated using Agilent ChemStation software. For data analysis involving quantitative mass spec integration, calibration curves with macrocyclic peptide product were performed in triplicate in order to linearly correlate ion counts to cyclic product concentration. Data fitting and plotting was performed with Prism 6.
# PCY1 extracted from S. vaccaria seeds has been previously described to have a turnover number of ˜1 h^−1 for PresegA1.^17 The enzyme produced heterologously in E. coli was evaluated by LC/MS-based time course experiments macrocyclizing 200 μM of PresegA1, PresegB1 or PresegF1 with 3.6 μM PCY1. […] We chose to investigate the slowest and fastest substrate by steady-state kinetics using an LC/MS assay and UV280 nm quantification. […] Under the ITC conditions, the measured kcat (0.14±0.01 s^−1) was a factor of three lower than the LC/MS derived values. […] Therefore, we resorted to an LC/MS assay followed by quantification using mass ion counts, relying on a calibration curve employing the macrocyclic peptide product as a standard (FIG. 2b).
# PCY1 [3] = assay: LC/MS steady-state kinetics of macrocyclisation by PCY1; type: biochemical, Saponaria vaccaria; details: for Km: read-out: Km (table head prints Kin)
# Method: as §1
# PCY1 extracted from S. vaccaria seeds has been previously described to have a turnover number of ˜1 h^−1 for PresegA1.^17 The enzyme produced heterologously in E. coli was evaluated by LC/MS-based time course experiments macrocyclizing 200 μM of PresegA1, PresegB1 or PresegF1 with 3.6 μM PCY1. These substrates were chosen as they produce 6, 5 and 9 residue macrocycles, respectively, show variability in the length of the C-terminal tail sequence, and have a different C-terminal core residue (proline in PresegF1, alanine in the other two) (FIG. 1b). PresegB1 was completely macrocyclized in ˜30 min, PresegA1 in ˜50 min and PresegF1 in >3 h (FIG. 2a). We chose to investigate the slowest and fastest substrate by steady-state kinetics using an LC/MS assay and UV280 nm quantification. […] Under the ITC conditions, the measured kcat (0.14±0.01 s^−1) was a factor of three lower than the LC/MS derived values. […] Therefore, we resorted to an LC/MS assay followed by quantification using mass ion counts, relying on a calibration curve employing the macrocyclic peptide product as a standard (FIG. 2b).
# PCY1:S562A = assay: ITC equilibrium binding to PCY1:S562A; parameters: species or system Saponaria vaccaria; details: for Kd: ITC, 25° C.
# Method: All PCY1 samples were buffer-exchanged or solubilized into buffer F and further diluted in the same batch of buffer F, in order to minimize buffer mismatches. ITC binding experiments were performed using a cell solution containing PCY1:S562A and a titrant solution with each peptide used. […] The measurements were performed at a stir speed of 750 rpm at 25° C. using a reference power of 10 μcal/s, except for A1-NH2 (5 μcal/s). A buffer titration control in which peptide was titrated into buffer was performed for each experiment. Data processing, fitting to a non-linear one-site binding model, and data plotting was performed using MicroCal PEAQ ITC analysis software (Malvern). […] The measurement was performed in buffer at 30° C., at 750 rpm using a reference power of 5 μcal/s.
# [4] = ITC, 20° C., S577A mutant, read-out: Kd
# Sequence of PCY1 (as listed by the source): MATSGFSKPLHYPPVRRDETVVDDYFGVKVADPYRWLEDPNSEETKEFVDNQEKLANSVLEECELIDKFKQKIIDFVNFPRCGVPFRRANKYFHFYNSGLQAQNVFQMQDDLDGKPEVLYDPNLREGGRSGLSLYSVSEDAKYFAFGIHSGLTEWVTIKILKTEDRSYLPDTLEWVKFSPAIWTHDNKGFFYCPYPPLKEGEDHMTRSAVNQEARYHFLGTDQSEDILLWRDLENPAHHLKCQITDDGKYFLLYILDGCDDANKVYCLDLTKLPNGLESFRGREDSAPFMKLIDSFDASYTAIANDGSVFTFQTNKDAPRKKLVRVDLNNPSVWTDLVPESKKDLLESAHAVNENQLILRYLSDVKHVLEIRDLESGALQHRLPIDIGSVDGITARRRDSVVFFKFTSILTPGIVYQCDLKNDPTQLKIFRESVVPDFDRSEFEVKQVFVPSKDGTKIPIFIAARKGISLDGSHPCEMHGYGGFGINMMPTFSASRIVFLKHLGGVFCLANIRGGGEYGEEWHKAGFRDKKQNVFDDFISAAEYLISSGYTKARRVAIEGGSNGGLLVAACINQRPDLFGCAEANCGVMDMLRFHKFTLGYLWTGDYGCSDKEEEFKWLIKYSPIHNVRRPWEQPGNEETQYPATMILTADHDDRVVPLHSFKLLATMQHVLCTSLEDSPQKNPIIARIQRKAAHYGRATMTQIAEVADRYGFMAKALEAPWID
# Sequence of PCY1:S562A (as listed by the source, stated change not applied): as the sequence (as listed by the source) above, with S562A counted along it
compound,measurement,setting,value
H-IWGIGCNPWTAEHV [14mer],Km,GmPOPB,380 µM
same,kcat,GmPOPB,0.00967 s⁻¹
same,Kd,GmPOPB_S577A; [4],9.5 ± 1.1 µM
H-IWGIGCNPWTAEH [13mer],Km,GmPOPB,25 µM
same,kcat,GmPOPB,0.00817 s⁻¹
same,difference in binding affinity (fold),GmPOPB_S577A,~20 fold and 10 fold
same,Kd,GmPOPB_S577A; [4],2.4 ± 0.1 µM
RANASAPV [catalytic peptide for PCY1],effect of catalytic peptide on rate of PreF1coreT macrocyclisation,PCY1 [1],increase in the rate
RGANASAPV [catalytic peptide for PCY1],effect of catalytic peptide on rate of PreF1coreT macrocyclisation,PCY1 [1],increase in the rate
H-IWGIGCNPWTA [11mer],Kd,GmPOPB_S577A; [4],39 ± 18 µM
PresegF1: native linear PCY1 substrate presegetalin F1; produces a 9 residue macrocycle (FSASYSSKPIQTQVSNGMDNASAPV; PresegF1),time until completely macrocyclized,PCY1 [2],> 3 h
same,kcat (table head prints kout),"PCY1 [3]; LC/MS (ion counts), 30° C.",0.12 ± 0.01 s⁻¹
same,Km,"PCY1 [3]; LC/MS (ion counts), 30° C.",2.4 ± 0.51 µM
same,processing by PCY1 (in words),"PCY1 [3]; steady state kinetics, FIG. 7",rapidly processed
same,Kd,PCY1:S562A,~0.2 µM
MFDTNATRLP [reference compound],binding (in words),GmPOPB_S577A; ITC,no detectable binding
same,binding (in words),"GmPOPB_S577A; ITC, listed as 10-residue leader",does not bind
same,binding (in words),"GmPOPB_S577A; ITC, listed as leader",does not bind
PresegD1: native linear PCY1 substrate presegetalin D1 (GLSFAFPAKDAENASSPV),Kd,PCY1:S562A,~0.2 µM
VDQTLASGNDIC [12mer-recogSeq],Kd,GmPOPB_S577A,5 ± 1 µM
same,difference in binding affinity (fold),GmPOPB_S577A,20 fold
TLASGNDIC [9mer-recogSeq],Kd,GmPOPB_S577A,121 ± 19 µM
RGGNASAPV [catalytic peptide for PCY1],effect of catalytic peptide on rate of PreF1coreT macrocyclisation,PCY1 [1],increase in the rate
H-IWGIGCNPWTAE [12mer],Kd,GmPOPB_S577A; [4],21 ± 5 µM
FSASYSSKPIQT [PresegF1-truncated],Km,"PCY1 [3]; LC/MS (ion counts), 30° C.",227 µM
same,Kd (in words),PCY1:S562A; poor peptide solubility at high concentrations,too high to be accurately measured
RAANSAPV [catalytic peptide for PCY1],effect of catalytic peptide on rate of PreF1coreT macrocyclisation,PCY1 [1],increase in the rate
RASAPV,effect of catalytic peptide on rate of PreF1coreT macrocyclisation,PCY1 [1],increase in the rate
"CC[C@H](C)[C@H](NC(=O)CNC(=O)[C@H](Cc1c[nH]c2ccccc12)NC(=O)[C@@H](NC(=O)[C@@H]1CCCN1C(=O)[C@H](CC(C)C)NC(=O)[C@H](CCCNC(=N)N)NC(=O)[C@@H](NC(=O)[C@H](C)NC(=O)[C@H](CC(N)=O)NC(=O)[C@@H](NC(=O)[C@H](CC(=O)O)NC(=O)[C@H](Cc1ccccc1)NC(=O)[C@@H](N)CCSC)[C@@H](C)O)[C@@H](C)O)[C@@H](C)CC)C(=O)NCC(=O)N[C@@H](CS)C(=O)N[C@@H](CC(N)=O)C(=O)N1CCC[C@H]1C(=O)N[C@@H](Cc1c[nH]c2ccccc12)C(=O)N[C@H](C(=O)N[C@@H](C)C(=O)N[C@@H](CCC(=O)O)C(=O)N[C@@H](Cc1c[nH]cn1)C(=O)N[C@H](C(=O)N[C@@H](CC(=O)O)C(=O)N[C@@H](CCC(N)=O)C(=O)N[C@H](C(=O)N[C@@H](CC(C)C)C(=O)N[C@@H](C)C(=O)N[C@@H](CO)C(=O)NCC(=O)N[C@@H](CC(N)=O)C(=O)N[C@@H](CC(=O)O)C(=O)N[C@H](C(=O)N[C@@H](CS)C(=O)O)[C@@H](C)CC)[C@@H](C)O)C(C)C)[C@@H](C)O [35mer, reference compound]",Kd,GmPOPB_S577A; [4],0.12 ± 0.03 µM
RNASAPV [catalytic peptide for PCY1],effect of catalytic peptide on rate of PreF1coreT macrocyclisation,PCY1 [1],increases the rate; also recorded: increase in the rate
DNASAPV [catalytic peptide for PCY1],effect of catalytic peptide on rate of PreF1coreD macrocyclisation,"PCY1 [1]; substrate PreF1coreD (FSASYSSKPIQD), mismatched catalytic peptide",reduces the rate
H-IWGIGCNPWT [10mer],Kd,GmPOPB_S577A; [4],83 ± 17 µM
RGNASAPV [catalytic peptide for PCY1],effect of catalytic peptide on rate of PreF1coreT macrocyclisation,PCY1 [1],increase in the rate
